Assay results as given in ChEMBL document CHEMBL1149830, “Kadsuracoccinic acids A-C, ring-A seco-lanostane triterpenes from Kadsura coccinea and their effects on embryonic cell division of Xenopus laevis” (J Nat Prod, 2008).

Tests used:
[1] = Growth inhibition of embryonic cells of stage 8 Xenopus laevis blastulae at 10 ug/mL; assay type: functional; settings: Blastula stage
[2] = Induction of cleavage arrest in embryonic cells of stage 8 Xenopus laevis blastulae; assay type: functional, cell-based; settings: Blastula
[3] = Induction of cleavage arrest in embryonic cells of stage 8 Xenopus laevis blastulae at 1 ug/mL; assay type: functional, Blastula

O=c1[nH]cc(F)c(=O)[nH]1 [FLUOROURACIL]
inhibition at 10 µg/mL [1]: 47%
IC50 [2]: 26.8 µM

C=C(C)[C@@H]1CC[C@@H]2C(=CC[C@]3(C)/C(=C(/C)CC/C=C(/C)C(=O)O)CC[C@@]23C)[C@@]1(C)CCC(=O)O [KADSURACOCCINIC ACID A]
IC50 [2]: 0.68 µM
Activity [3]: 85%
